Measurements as given in US8568754B2, “Low-emission formaldehyde donor preparations and use thereof” (Air Liquide Sante (International), priority 2002, dated 2013).

Settings: not told

## CC1CN(CN2COC(C)C2)CO1 (centres unmarked) [No. 1, N,N′-methylenebis(5-methyloxazolidine)]
  efflux time from a DIN beaker 4 mm: 22 s
  efflux time from the DIN beaker 6 mm: 6 s
